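Five concentrations, 48 hours, 96-well plates. Here, GI50 denotes the concentration required for 50% inhibition of growth.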 Calls of active or inactive are those of the source. Rule as the data show it: active = GI50 up to about 1.1 µM and inactive = higher.
Tests used:
Test in all cases: DTP human tumour cell line panel, 48 h
[1] = system: RXF 393
[2] = system: MCF7
[3] = system: HL-60
[4] = system: LOX IMVI
[5] = system: SF-295
[6] = system: A498
[7] = system: HOP-92
[8] = system: TK-10
[9] = system: SK-MEL-2
[10] = system: SK-MEL-28
[11] = system: KM12
[12] = system: RPMI-8226
[13] = system: COLO 205
[14] = system: HT-29
[15] = system: HCT-116
[16] = system: MDA-N
[17] = system: NCI-H23
[18] = system: CCRF-CEM
[19] = system: MOLT-4
[20] = system: OVCAR-3
[21] = system: SNB-19
[22] = system: ACHN
[23] = system: CAKI-1
[24] = system: SR
[25] = system: SW-620
[26] = system: SN12C
[27] = system: UACC-62
[28] = system: OVCAR-5
[29] = system: EKVX
[30] = system: U-251
[31] = system: UO-31
[32] = system: IGROV-1
[33] = system: A549
[34] = system: HCC 2998
[35] = system: HCT-15
[36] = system: NCI-H460
[37] = system: DU-145
[38] = system: M14
[39] = system: SF-539
[40] = system: 786-0
[41] = system: OVCAR-8
[42] = system: T47D
[43] = system: PC-3
[44] = system: OVCAR-4
[45] = system: NCI/ADR-RES
[46] = system: MDA-MB-435
[47] = system: BT-549
[48] = system: K562
[49] = system: SK-OV-3
[50] = system: MDA-MB-231
[51] = system: SK-MEL-5
[52] = system: HOP-62
[53] = system: UACC-257

O=c1oc2cc(O)ccc2cc1-c1nc2ccccc2s1
GI50 [1]: 31.7 µM (inactive)
GI50 [2]: 23.9 µM (inactive)
GI50 [3]: 16.1 µM (inactive)
GI50 [4]: 25.9 µM (inactive)
GI50 [5]: 54.1 µM (inactive)
GI50 [6]: 19.6 µM (inactive)
GI50 [7]: 27.7 µM (inactive)
GI50 [8]: 30.1 µM (inactive)
GI50 [9]: 21.8 µM (inactive)
GI50 [10]: 0.0656 µM (active)
GI50 [11]: 42.3 µM (inactive)
GI50 [12]: 11.5 µM (inactive)
GI50 [13]: 0.109 µM (active)
GI50 [14]: 29 µM (inactive)
GI50 [15]: 21.8 µM (inactive)
GI50 [16]: 19.1 µM (inactive)
GI50 [17]: 21.1 µM (inactive)
GI50 [18]: 10.4 µM (inactive)
GI50 [19]: 0.678 µM (active)
GI50 [20]: 16.3 µM (inactive)
GI50 [21]: 30.8 µM (inactive)
GI50 [22]: 22.5 µM (inactive)
GI50 [23]: 22.9 µM (inactive)
GI50 [24]: 25.8 µM (inactive)
GI50 [25]: 12.2 µM (inactive)
GI50 [26]: 21.8 µM (inactive)
GI50 [27]: 7.21 µM (inactive)
GI50 [28]: 30.8 µM (inactive)
GI50 [29]: 27.2 µM (inactive)
GI50 [30]: 23 µM (inactive)
GI50 [31]: 16.4 µM (inactive)
GI50 [32]: 35.4 µM (inactive)
GI50 [33]: 19.1 µM (inactive)
GI50 [34]: 27.5 µM (inactive)
GI50 [35]: 20.1 µM
GI50 [36]: 21.2 µM (inactive)
GI50 [37]: 29.2 µM (inactive)
GI50 [38]: 24.5 µM (inactive)
GI50 [39]: 24.7 µM (inactive)
GI50 [40]: 22.8 µM (inactive)
GI50 [41]: 34.7 µM (inactive)
GI50 [42]: 31.3 µM (inactive)
GI50 [43]: 22.8 µM (inactive)
GI50 [44]: 28.2 µM (inactive)
GI50 [45]: 18.7 µM (inactive)
GI50 [46]: 27.3 µM (inactive)
GI50 [47]: 16.9 µM (inactive)
GI50 [48]: 7.41 µM (inactive)
GI50 [49]: 38.8 µM (inactive)
GI50 [50]: 23.7 µM (inactive)
GI50 [51]: 11.1 µM (inactive)
GI50 [52]: 20.9 µM (inactive)
GI50 [53]: 22.6 µM (inactive)

Source: ChEMBL document CHEMBL1201862, “PubChem BioAssay data set” (2004)
